According to patent US20240150377A1, “MODULATORS OF CYSTIC FIBROSIS TRANSMEMBRANE CONDUCTANCE REGULATOR” (VERTEX PHARMACEUTICALS INCORPORATED, priority 2020, published 2024):
Like-named read-outs stand apart in the source and are kept apart here. Values belong to the compound of their own block, whether it stands above or below them.

Target: T1, CFTR (Homo sapiens, UniProt P13569, DEL508-508)
T1 construct: endogenous in cells; host or cells: primary human bronchial epithelial cells from CF subjects (F508del/MF-HBE), differentiated at air-liquid interface
Assay: HBE assay: Ussing chamber assay of CFTR-mediated short-circuit currents
Assay type: cell-based
Details: for EC50: read-out: HBE EC50
Method in brief: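 CFTR-mediated Isc (μA/cm²) equals the peak response to apical 20 μM forskolin minus the residual after a 20 μM each BPO/GlyH-101/CFTR inhibitor 172 cocktail, recorded in Ussing chambers at Vhold 0 mV, 37 °C, pH 7.4, with 30 μM apical amiloride. Cells were F508del/MF HBE cultures preincubated 18-24 h with corrector (concentration range or 10 μM) plus 1 μM ivacaftor in 20% human serum.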

[1] = Table 12, at 10 μM, read-out: HBE Activity at 10 μM (%)
[2] = Table 11, read-out: HBE Max Activity (%)
[3] = HBE assay, read-out: HBE Max activity (%)
[4] = Table 10, at 10 μM, read-out: HBE activity at 10 (μM) (%)
[5] = Table 10, read-out: HBE Max activity (%)
[6] = Table 12, read-out: HBE Max Activity (%)
[7] = Table 13, read-out: HBE Max Activity (%)
[8] = Table 11, at 10 μM, read-out: HBE Activity at 10 μM (%)
[9] = Table 13, at 10 μM, read-out: HBE Activity at 10 μM (%)

T1 sequence (P13569 with tags, fused parts or gaps DEL508-508): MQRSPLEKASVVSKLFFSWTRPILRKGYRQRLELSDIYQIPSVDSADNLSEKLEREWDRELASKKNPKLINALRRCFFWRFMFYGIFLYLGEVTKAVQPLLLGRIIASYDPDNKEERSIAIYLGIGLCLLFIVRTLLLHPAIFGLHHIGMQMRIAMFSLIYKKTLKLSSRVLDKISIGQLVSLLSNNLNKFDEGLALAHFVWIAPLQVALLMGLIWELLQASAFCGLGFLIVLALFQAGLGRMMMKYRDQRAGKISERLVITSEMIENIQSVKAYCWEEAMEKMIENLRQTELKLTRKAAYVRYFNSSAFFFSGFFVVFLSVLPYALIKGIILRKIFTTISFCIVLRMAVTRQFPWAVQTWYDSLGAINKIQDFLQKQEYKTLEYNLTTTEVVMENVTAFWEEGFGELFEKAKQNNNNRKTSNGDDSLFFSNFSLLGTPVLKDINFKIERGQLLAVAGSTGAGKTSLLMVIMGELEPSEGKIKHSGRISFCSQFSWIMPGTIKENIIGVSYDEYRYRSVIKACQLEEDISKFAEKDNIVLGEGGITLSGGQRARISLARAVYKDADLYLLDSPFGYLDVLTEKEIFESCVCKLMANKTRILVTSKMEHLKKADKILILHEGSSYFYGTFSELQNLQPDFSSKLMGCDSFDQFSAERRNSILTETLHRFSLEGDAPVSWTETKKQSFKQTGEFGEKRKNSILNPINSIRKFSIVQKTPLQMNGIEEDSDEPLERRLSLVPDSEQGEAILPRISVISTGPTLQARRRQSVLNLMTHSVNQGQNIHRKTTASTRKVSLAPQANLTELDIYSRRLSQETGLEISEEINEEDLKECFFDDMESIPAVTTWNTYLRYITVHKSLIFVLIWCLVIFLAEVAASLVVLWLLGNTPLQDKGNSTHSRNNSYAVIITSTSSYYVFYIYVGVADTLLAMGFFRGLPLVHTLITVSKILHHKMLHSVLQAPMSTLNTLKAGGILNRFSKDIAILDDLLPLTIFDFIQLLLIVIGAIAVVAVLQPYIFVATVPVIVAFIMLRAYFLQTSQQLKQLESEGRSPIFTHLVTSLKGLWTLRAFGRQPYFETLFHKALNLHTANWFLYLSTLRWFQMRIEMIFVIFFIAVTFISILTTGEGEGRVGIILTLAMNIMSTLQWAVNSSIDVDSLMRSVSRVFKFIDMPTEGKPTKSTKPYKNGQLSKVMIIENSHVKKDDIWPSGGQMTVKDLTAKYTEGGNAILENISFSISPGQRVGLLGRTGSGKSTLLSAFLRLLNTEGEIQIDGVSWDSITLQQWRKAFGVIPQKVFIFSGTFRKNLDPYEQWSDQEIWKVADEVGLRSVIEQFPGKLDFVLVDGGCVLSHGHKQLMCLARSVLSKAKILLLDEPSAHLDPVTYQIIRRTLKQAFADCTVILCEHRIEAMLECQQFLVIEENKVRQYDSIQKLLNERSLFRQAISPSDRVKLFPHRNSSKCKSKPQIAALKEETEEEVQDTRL

activation at 10 µM (HBE assay, 10 μM, read-out: HBE Activity at 10 μM (%)): > 60%
SMILES: Cc1cccc(C)c1-c1cc2nc(n1)NS(=O)(=O)c1cccc(c1)C(=O)N(Cc1ncc(OC3CCCOC3)cn1)[C@H](CC(C)C)CO2 (stereo partly drawn) [Compound 1433]

EC50 (Table 13): < 1 µM
SMILES: Cc1cccc(C)c1-c1cc2nc(n1)NS(=O)(=O)c1cccc(c1)C(=O)N(Cc1ccc([C@@H](O)CO)cn1)[C@H](CC(C)(C)C)CO2 [Compound 1150]

EC50 (Table 11): < 1 µM
Emax [2]: > 60%
SMILES: Cc1cccc(C)c1-c1cc2nc(n1)NS(=O)(=O)c1cccc(c1)C(=O)N(Cc1cccc(N3CCC[C@@H]3C)n1)[C@H](CC(C)(C)C)CO2 [Compound 710]

EC50 (HBE assay): < 1 µM
Emax [3]: > 60%
SMILES: Cc1cccc(C)c1-c1cc2nc(n1)NS(=O)(=O)c1cccc(c1)C(=O)N(Cc1ccc(OC(F)(F)F)cn1)[C@H](CC(C)(C)C)CO2 [Compound 1412]

EC50 (Table 11): < 1 µM
Emax [2]: > 60%
SMILES: Cc1cccc(C)c1-c1cc2nc(n1)NS(=O)(=O)c1cccc(c1)C(=O)N(Cc1cc(C(C)(C)C)ccn1)[C@H](CC(C)(C)C)CO2 [Compound 886]

EC50 (Table 11): 3 to 30 µM
Emax [2]: > 60%
SMILES: Cc1cccc(C)c1-c1cc2nc(n1)NS(=O)(=O)c1cccc(c1)C(=O)N(Cc1ncc(C3CCC3)cn1)[C@H](CC(C)(C)C)CO2 [Compound 635]

activation at 10 µM [4]: > 60%
SMILES: Cc1cccc(C)c1-c1cc2nc(n1)NS(=O)(=O)c1cccc(c1)C(=O)N(Cc1ccccc1OCC(=O)NN)[C@H](CC(C)(C)C)CO2 [Compound 777]

EC50 (Table 13): < 1 µM
Emax [7]: > 60%
SMILES: Cc1cccc(C)c1-c1cc2nc(n1)NS(=O)(=O)c1cccc(n1)C(=O)N(Cc1cncc(N(C)CC(C)(C)C)n1)[C@H](CC(C)(C)C)CO2 [Compound 1126]

activation at 10 µM [8]: > 60%
SMILES: Cc1cccc(C)c1-c1cc2nc(n1)NS(=O)(=O)c1cccc(c1)C(=O)N(Cc1ccc(OCCC(C)(C)C)cn1)[C@H](CC(C)(C)C)CO2 [Compound 746]

EC50 (HBE assay): < 1 µM
Emax [3]: > 60%
SMILES: Cc1cccc(C)c1-c1cc2nc(n1)NS(=O)(=O)c1cccc(c1)C(=O)N(Cc1cccc(N3C4CCC3CC4)n1)[C@H](CC(C)(C)C)CO2 [Compound 1398]

EC50 (HBE assay): < 1 µM
Emax [3]: > 60%
SMILES: Cc1cccc(C)c1-c1cc2nc(n1)NS(=O)(=O)c1cccc(c1)C(=O)N(Cc1cncc(N3CCCC3C)n1)[C@H](CC(C)(C)C)CO2 (stereo in doubt) [Compound 1366]

EC50 (HBE assay): < 1 µM
Emax [3]: > 60%
SMILES: Cc1cccc(C)c1-c1cc2nc(n1)NS(=O)(=O)c1cccc(c1)C(=O)N(Cc1cncc(NC3CCOC3)n1)[C@H](CC(C)(C)C)CO2 (stereo partly drawn) [Compound 1353]

EC50 (HBE assay): < 1 µM
Emax [3]: > 60%
SMILES: Cc1cccc(C)c1-c1cc2nc(n1)NS(=O)(=O)c1cccc(c1)C(=O)N(Cc1ncc(N3CC(OC(C)C)C3)cn1)[C@H](CC(C)(C)C)CO2 [Compound 1404]

EC50 (Table 11): < 1 µM
Emax [2]: > 60%
SMILES: Cc1cccc(C)c1-c1cc2nc(n1)NS(=O)(=O)c1cccc(c1)C(=O)N(CC1CN(C(=O)OC(C)(C)C)CCO1)[C@H](CC(C)(C)C)CO2 (stereo partly drawn) [Compound 723]

activation at 10 µM [8]: > 60%
EC50 (Table 11): < 1 µM
Emax [2]: > 60%
SMILES: Cc1cccc(C)c1-c1cc2nc(n1)NS(=O)(=O)c1cccc(c1)C(=O)N(Cc1cccc(C3CCCC3)n1)[C@H](CC(C)(C)C)CO2 [Compound 598]

EC50 (Table 11): 1 to 3 µM
Emax [2]: > 60%
SMILES: Cc1cccc(C)c1-c1cc2nc(n1)NS(=O)(=O)c1cccc(c1)C(=O)N(Cc1ncc(N3CC4CC4C3)cn1)[C@H](CC(C)(C)C)CO2 (stereo partly drawn) [Compound 717]

EC50 (Table 13): < 1 µM
Emax [7]: > 60%
SMILES: Cc1cccc(C)c1-c1cc2nc(n1)NS(=O)(=O)c1cccc(c1)C(=O)N(Cc1nc3c(ccn3C(C)C)cc1F)[C@H](CC(C)(C)C)CO2 [Compound 1124]

Continued, compound first:

SMILES: Cc1cccc(C)c1-c1cc2nc(n1)NS(=O)(=O)c1cccc(c1)C(=O)N(Cc1cncc(N3CCC[C@@H]3C)c1)[C@H](CC(C)(C)C)CO2 [Compound 283]
activation at 10 µM [1]: > 600%

SMILES: COCCCNc1cccc(CN2C(=O)c3cccc(c3)S(=O)(=O)Nc3nc(cc(-c4c(C)cccc4C)n3)OC[C@H]2CC(C)(C)C)n1 [Compound 472]
activation at 10 µM [4]: > 60%
Emax [5]: > 60%

SMILES: Cc1cccc(C)c1-c1cc2nc(n1)NS(=O)(=O)c1cccc(c1)C(=O)N(Cc1ccc(N(C)CC(C)(C)C)cn1)[C@H](CC(C)(C)C)CO2 [Compound 497]
EC50 (Table 10): 1 to 3 µM
Emax [5]: > 60%

SMILES: Cc1cccc(C)c1-c1cc2nc(n1)NS(=O)(=O)c1cccc(c1)C(=O)N(Cc1cccc(/C=C/C(C)(C)C)n1)[C@H](CC(C)(C)C)CO2 [Compound 588]
EC50 (Table 12): < 1 µM
Emax [6]: > 60%

SMILES: Cc1cccc(C)c1-c1cc2nc(n1)NS(=O)(=O)c1cccc(c1)C(=O)N(Cc1ncccc1O)[C@H](CC(C)(C)C)CO2 [Compound 54, (11R)-6-(2,6-Dimethylphenyl)-11-(2,2-dimethylpropyl)-12-[(3-hydroxy-2-pyridyl)methyl]-2,2-dioxo-9-oxa-2λ^6-thia-3,5,12,19-tetrazatricyclo[12.3.1.14,8]nonadeca-1(18),4(19),5,7,14,16-hexaen-13-one]
EC50 (Table 10): < 1 µM
Emax [5]: > 60%

SMILES: COc1cccc(C)c1-c1cc2nc(n1)NS(=O)(=O)c1cccc(c1)C(=O)N(Cc1ncc(N3CCC(C)(C)C3)cn1)[C@H](CC(C)(C)C)CO2 [Compound 579]
EC50 (Table 12): < 1 µM
Emax [6]: > 60%

SMILES: Cc1cccc(C)c1-c1cc2nc(n1)NS(=O)(=O)c1cccc(c1)C(=O)N(Cc1ccc(-c3c(C)n[nH]c3C)cc1)[C@H](CC(C)(C)C)CO2 [Compound 143, (11R)-12-{[4-(3,5-dimethyl-1H-pyrazol-4-yl)phenyl]methyl}-6-(2,6-dimethylphenyl)-11-(2,2-dimethylpropyl)-9-oxa-2λ^6-thia-3,5,12,19-tetraazatricyclo[12.3.1.14,8]nonadeca-1(17),4,6,8(19),14(18),15-hexaene-2,2,13-trione]
EC50 (Table 10): < 1 µM
Emax [5]: > 60%

SMILES: Cc1cccc(C)c1-c1cc2nc(n1)NS(=O)(=O)c1cccc(c1)C(=O)N(Cc1cnc(C3CCCCC3)nc1)[C@H](CC(C)(C)C)CO2 [Compound 271]
EC50 (Table 12): < 1 µM
Emax [6]: > 60%

SMILES: Cc1cccc(C)c1-c1cc2nc(n1)NS(=O)(=O)c1cccc(c1)C(=O)N(CC(=O)NCc1ccccc1)[C@H](CC(C)(C)C)CO2 [Compound 219]
activation at 10 µM [9]: > 600%

SMILES: Cc1cc(N(C)C)cnc1CN1C(=O)c2cccc(c2)S(=O)(=O)Nc2nc(cc(-c3c(C)cccc3C)n2)OC[C@H]1CC(C)(C)C [Compound 494]
EC50 (Table 10): < 1 µM
Emax [5]: > 60%

SMILES: Cc1cccc(C)c1-c1cc2nc(n1)NS(=O)(=O)c1cccc(c1)C(=O)N(Cc1cncc(N(C)C34CC(C3)C4)n1)[C@H](CC(C)(C)C)CO2 [Compound 443]
EC50 (Table 12): < 1 µM
Emax [6]: > 60%

SMILES: Cc1cccc(C)c1-c1cc2nc(n1)NS(=O)(=O)c1cccc(c1)C(=O)N(Cc1cncc(N(C)CC(C)(C)C)n1)[C@H](CC(C)C)CO2 [Compound 551]
EC50 (Table 12): < 1 µM
Emax [6]: > 60%

SMILES: COc1cc(Br)cnc1CN1C(=O)c2cccc(c2)S(=O)(=O)Nc2nc(cc(-c3c(C)cccc3C)n2)OC[C@H]1CC(C)(C)C [Compound 244]
activation at 10 µM [9]: > 600%

SMILES: Cc1cccc(C(C)C)c1-c1cc2nc(n1)NS(=O)(=O)c1cccc(c1)C(=O)N(Cc1ncc(OC(C)C)cn1)[C@H](CC(C)C)CO2 [Compound 241]
activation at 10 µM [1]: > 600%

SMILES: Cc1cccc(C)c1-c1cc2nc(n1)NS(=O)(=O)c1cccc(c1)C(=O)N(CC(=O)N(C)CC1CCOCC1)[C@H](CC(C)(C)C)CO2 [Compound 223]
activation at 10 µM [9]: > 600%

SMILES: Cc1cccc(C)c1-c1cc2nc(n1)NS(=O)(=O)c1cccc(c1)C(=O)N(Cc1ccccc1-c1csc(OC(C)C)n1)[C@H](CC(C)(C)C)CO2 [Compound 305]
activation at 10 µM [4]: > 60%
